Square brackets hold non-standard residues; d marks the D form. Ends that are not written are not given here.
Columns and labels:
[1] = tested on: fast aging Xpd^TTD/TTD mice; experiment: Healthspan, organ function and blood parameters of fast aging Xpd^TTD/TTD and wildtype mice; type: in vivo, mouse; conditions: 5 mg/kg i.v. day 0, 2 and 4, end of experiment
[2] = tested on: Senescent and control IMR90
Experimental: The selectivity index (S.I.) for the EC50 values was determined after […] (GraphPad Prism) of the curves. […] Real-time cell density was measured using an xCELLigence detection system (ACEA Biosciences). Prior to the start of the measurement 50 μL DMEM 10% FCS was added to each well of an E-plate view 16 (Roche) to determine background signal. Non-senescent (2000 cells per well) and senescent (5000 cells/well) IMR90 fibroblasts were then plated in 150 μl medium. 16 hours later the E-plate was placed in the xCELLigence reader and the cell density was recorded every 30 minutes. […] Measurements continued for the indicated time-points. […] Experiment as in FIG. 2C, but with the indicated peptides. […] Cells were plated in 4-well Poly-L-Lysine coated glass bottom 35 mm dishes (D141410; Matsumi, Japan) and incubated with NucView488 Caspase-3 (4440; Essen Bioscience). […] 8h after addition the real-time imaging was initiated and every 30 min a grid of 3×3 pictures was imaged. The imaging continued for another 6 days and the images were concatenated using Zen imaging software. […] After 6 days cell viability was determined as in FIG. 2C). […] Experiment as in FIG. 2C, but according to the indicated treatment plan. Instead of one single dose, three doses were given (one day in between) of ⅓ that concentration each time. […] Left: Experiment as in FIG. 2C, but on cells pretreated once daily for two days with IL-1α Receptor Antagonist (RA), which blocks IL-1α/β signaling, recombinant IL-6 and recombinant IL-1α/β. […] Right: Similar experiment as in the left panel, except viability measured one day earlier. […] In senescent cells p53 signaling causes upregulation of the cell-cycle arrest and pro-survival protein p21Cip1. […] Experiment as in FIG. 2K. […] Experiment as in FIG. 2c, but with control and senescent IMR90 stable transduced with shRNAs against p53 or a control shRNA (shGFP).
A) Control IMR90 and IMR90 induced to senesce through 10Gy IR were plated in triplicate for each condition in a 96-well plate. […] After 6 days viability was determined through AqeousOne celltiter assay (Promega) according to the manufacturer's instructions.
Non-senescent (=“normal”, proliferating) IMR90 cells (ATCC #CCL-186, a diploid primary human fibroblast adherent cell line derived from fetal lung tissue) were irradiated with 10Gy Gamma-IR (IR=irradiation). After 7 days these cells are senescent and can be used for experiments comparing them to their non-irradiated (=non-senescent) counterparts. Senescent and non-senescent IMR90 fibroblasts were plated for longitudinal cell density measurement using the xCELLigence system (ACEA Biosciences, Inc., San Diego, Calif.).
5000 senescent (obtained as described above) and 2000 non-senescent IMR90 fibroblasts were plated in 96-well plates incubated with concentrations of NQDI between 0-20 μM and after 6 days cell viability was determined by AqueousOne CellTiter (MTT) assay according to the manufacturer's instructions.
5000 senescent (obtained as described above) and 2000 non-senescent IMR90 fibroblasts were plated in 96-well plates incubated with concentrations of R406, ranging from 16, 32, 64 to 128 nM and after 6 days cell viability was determined by AqueousOne CellTiter (MTT) assay according to the manufacturer's instructions.
Normal human IMR90 fibroblasts were exposed to 10 Gy Ionizing Radiation or treated 3× (bidaily) with 0.5 μM Doxorubicin. Seven days later they were processed for SA-β-Gal staining to visualize senescent cells. […] DAPI was used as a counterstain to visualize nuclei. […] After 6 days the cell viability was determined using an AqueousOne Celltiter (MTT) assay according to the manufacturer's instructions.

LOX-IMVI = experiment: Viability of LOX-IMVI metastatic melanoma cells; type: cell-based, human
Experimental: Assay as in FIG. 2C with increasing doses of Vemurafenib. […] LOX-IMVI however is resistant. […] Experiment as in FIG. 2C, but with LOX-IMVI treated with FOXO4 DRI alone, the BRAF^V600E-inhitors Vemurafenib or Dabrafenib, or the MEK inhibitor Trametinib alone, or a combination hereof. […] LOX-IMVI cells were incubated with FOXO4 DRI or Vemurafenib alone or in combination. The cells were co-treated with the pan-caspase inhibitor QVD-OPH to block caspase-dependent cell death. After 3 days the media was refreshed with new QVD-OPH containing media, but in the absence of FOXO4 DRI or Vemurafenib. At day 5 after initial treatment the cells were fixed and stained for Cytochrome C. Cytochrome C is present in the mitochondria in viable cells and is released into the cytosol when apoptosis is activated. Plotted are the number of cells showing release of Cytochrome C. […] LOX-IMVI were assessed for viability in the presence of FOXO4 DRI, the oxidative stress inhibitor N-Acetyl Cysteine (NAC) or the oxidative stressor H2O2. […]
LOX-IMVI cells were plated for (i) cell viability assay as in example 1 by AqueousOne MTT assay, (ii) apoptosis by Cytochrome C release, (iii) longitudinal cell density assay, and incubated with the FOXO4 DRI peptide, Vemurafenib/Trametinib, or their combination, respectively. […] The % of cells with Cytochrome C release was scored.

[3] = tested on: senescent and non-senescent IMR90 fibroblasts; experiment: Real-time cell density, xCELLigence, senescent and non-senescent IMR90 fibroblasts; type: cell-based, human; conditions: 2 μM on three consecutive days (24, 48 and 72 h)
Experimental: Measurements continued for the indicated time-points. […] Experiment as in FIG. 2K.
Cell density after time of plating was followed. […] NQDI is apparently rather safe even at high doses as as non-senescent cells are not affected by 20 uM NQDI.

## [dL][dT][dL][dR][dK][dE][dP][dA][dS][dE][dI][dA][dQ][dS][dI][dL][dE][dA][dY][dS][dQ][dN]G[dW][dA][dN][dR][dR][dS]GG[dK][dR][dP][dP][dP][dR][dR][dR][dQ][dR][dR][dK][dK][dR]G [FOXO4 DRI]
[1]
  toxicity to the hematopoietic system (blood parameters): does not induce toxicity to the hematopoietic system
[2]
  toxicity to non-senescent cells: proved to be safe to non-senescent cells

## CC(C)(C)c1nc(-c2cccc(NS(=O)(=O)c3c(F)cccc3F)c2F)c(-c2ccnc(N)n2)s1 [Dabrafenib]
LOX-IMVI; single agent
  LOX-IMVI viability, agent on its own: do not markedly affect LOX-IMVI viability

## OO [H2O2]
LOX-IMVI; FOXO4 DRI or H2O2 alone
  LOX-IMVI viability, individually: only marginally influenced LOX-IMVI viability

## CCOC(=O)c1c2c3c(cccc3[nH]c1=O)C(=O)c1ccccc1-2 [NQDI, 2,7-Dihydro-2,7-dioxo-3H-naphtho[1,2,3-de]quinoline-1-carboxylic acid ethyl ester]
[3]
  cell density, sequential rounds: enhance its effectivity towards senescent cell clearance
[2]; 0-20 μM, 6 days
  % viability over Mock, senescent and non-senescent IMR90: clearly reduces cell viability in senescent, but not non-senescent IMR90 fibroblasts
[2]; 20 uM
  effect on non-senescent cells at high dose: not affected
